# Data: patent publication US20110287026A1, “SIRT4 AND USES THEREOF” (President and Fellows of Harvard College, priority 2008, published 2011)
# How the values were obtained:
# Format in all cases: cell-based, mouse
# PPARα target gene Pdk4 = assay: Induction of PPARα target gene Pdk4 in MEFs exposed to WY14643 (quantitative RT-PCR); settings: 50 μM WY14643
# Description: Mouse embryonic fibroblasts (MEFs) were isolated on embryonic day 12.5-14.5 from heterozygous females that were mated with heterozygous males. Primary MEFs were cultured in DMEM containing 10% FBS and 0.1 mM BME and were used between passages 2 and 5.
# RNA was isolated from frozen liver tissue of overnight fasted mice or from cells using Trizol (Invitrogen) according to the manufacturer's instructions and further purified using RNeasy columns (Qiagen). Amplification and detection of target and reference cDNA samples was performed on a Lightcycler 480 (Roche) using Lightcycler 480 Sybr Green I Mastermix (Roche). A standard curve was generated for all genes using serial dilutions of a pool prepared from all cDNA samples. mRNA levels of target genes were normalized using beta 2 microglobulin (B2m), peptidyl-prolyl isomerase (Ppia) and ribosomal protein 16 (Rps16) as reference genes.
# To determine whether SIRT4 is a bona fide repressor of PPARα in a cell-autonomous manner, the induction of the PPARα target gene Pdk4 was examined in SIRT4^−/− and SIRT4′^+/+ mouse embryonic fibroblast (MEF) cell lines exposed to the PPARα agonist WY14643 (WY), as described above.
# [1] = test system: mitochondrial fatty acid oxidation in primary MEFs; assay: Oxidation of [3H]palmitate in primary MEFs; settings: SIRT4 KO and WT MEFs (both cell types)
# Description: Mouse embryonic fibroblasts (MEFs) were isolated on embryonic day 12.5-14.5 from heterozygous females that were mated with heterozygous males. Primary MEFs were cultured in DMEM containing 10% FBS and 0.1 mM BME and were used between passages 2 and 5. Cells were incubated overnight in culture medium containing 100 μM palmitate (C16:0) and 1 mM carnitine. In the final 2 hours of incubation, cells were pulsed with 1.7 μCi [9,10(n)-^3H]palmitic acid (GE Healthcare), and the medium was collected to analyze the released ^3H2O, formed during cellular oxidation of [^3H]palmitate. In brief, medium was TCA precipitated, supernatants were neutralized with NaOH and loaded onto ion exchange columns packed with DOWEX 1×2-400 resin (Sigma). The radioactive product was eluted with water and quantitated by liquid scintillation counting. Oxidation of [^3H]palmitate was normalized to protein content using Bio-Rad DC protein assay. […] To test this model, the rates of oxidation of palmitate, a saturated long chain fatty acid, were analyzed in primary MEFs and primary hepatocytes isolated from SIRT4 WT and KO mice. The CPT1a inhibitor, etomoxir, (Baht and Saggerson, 1989) was used to specifically block mitochondrial import of fatty acids.
# [2] = test system: fatty acid oxidation in primary hepatocytes; assay: Oxidation of [3H]palmitate in primary hepatocytes
# Description: Primary hepatocytes were isolated using a two-step perfusion protocol, based on previous methods (Lin et al., (2004) Cell 119, 121-135.). Briefly, livers were perfused first with Hanks balanced salt solution (HBSS, pH 7.4), containing glucose (1.0 g/l), EDTA (0.2 g/l), HCO3 (2.1 g/l) and KCl (0.4 g/l) for 5 minutes. Next, livers were perfused for 15 min with a collagenase buffer (pH 7.4, Invitrogen). After perfusion, livers were dissected, minced, filtered, and hepatocytes purified using Percoll (Sigma) and plated (500,000 cells per well) on collagen coated 6 well plates (BD Biosciences) in DMEM (4.5 g/l glucose) containing 10% FBS, 2 mM pyruvate, 2% Pen/strep, […] and 100 nM insulin. Typical primary hepatocyte isolations yielded 12-14×10^6 cells per liver with 96%-98% cell viability (assessed by Trypan blue exclusion assay). Two hours after plating, medium was replaced with maintenance medium (DMEM with 0.2% BSA, 2 mM pyruvate, 2% Pen/strep, 0.1 mM dexamethasone and 1 nM insulin). Fatty acid oxidation assays were performed one day after isolation.
# Cells were incubated overnight in culture medium containing 100 μM palmitate (C16:0) and 1 mM carnitine. In the final 2 hours of incubation, cells were pulsed with 1.7 μCi [9,10(n)-^3H]palmitic acid (GE Healthcare), and the medium was collected to analyze the released ^3H2O, formed during cellular oxidation of [^3H]palmitate. In brief, medium was TCA precipitated, supernatants were neutralized with NaOH and loaded onto ion exchange columns packed with DOWEX 1×2-400 resin (Sigma). The radioactive product was eluted with water and quantitated by liquid scintillation counting. Oxidation of [^3H]palmitate was normalized to protein content using Bio-Rad DC protein assay.
# Ultimately, the up-regulation of lipid catabolism gene expression during nutrient deprivation leads to enhanced rates of fatty acid oxidation. […] To test this model, the rates of oxidation of palmitate, a saturated long chain fatty acid, were analyzed in primary MEFs and primary hepatocytes isolated from SIRT4 WT and KO mice. […]
compound,measurement,setting,value
Cc1cccc(Nc2cc(Cl)nc(SCC(=O)O)n2)c1C [WY14643],stimulation of Pdk4 expression compared with WT cells,PPARα target gene Pdk4; MEFs lacking SIRT4,more than doubled
same,increase in Pdk4 expression,PPARα target gene Pdk4; wild-type MEFs,2 fold
CCOC(=O)[C@@]1(CCCCCCOc2ccc(Cl)cc2)CO1 [etomoxir],fatty acid oxidation ([3H]palmitate),[1],inhibited fatty acid oxidation strongly
same,mitochondrial fatty acid oxidation ([3H]palmitate),[2]; both WT and SIRT4 KO hepatocytes,effectively blocked mitochondrial fatty acid oxidation
NC(=O)C1CCCc2c1[nH]c1ccc(Cl)cc21 (stereo not drawn) [Ex 527],level of Fatty Acid Oxidation,[2]; SIRT4 KO hepatocytes,significantly reduced
same,rate of Fatty Acid Oxidation,[2]; WT hepatocytes,did not significantly alter
